These results are taken from patent publication US12576015B2, “Antimicrobial mixture containing 4-(3-ethoxy-4-hydroxyphenyl)butan-2-one and an alcohol compound, and cosmetic composition containing same” (L'OREAL, priority 2018, dated 2026).

In this experiment the test system is Aspergillus niger ATCC 6275. In words: Microplate growth inhibition / MIC and FIC index (synergy) test, optical density at 620 nm. Conditions: for microbial growth percentage: 0 A. Format: cell-based. An excerpt:
1] with: • MIC of A with B: minimum concentration of product A in the combination A+B which makes it possible to obtain an inhibitory effect; • MIC of B with A: minimum concentration of product B in the combination A+B which makes it possible to obtain an inhibitory effect; • MIC of A: minimum inhibitory concentration of product A alone; • MIC of B: minimum inhibitory concentration of product B alone.
When the FIC index value is less than or equal to 1, it is considered that the combination of test compounds has a synergistic effect.
The microbial strain Aspergillus niger ATCC 6275, and a double-concentration Sabouraud broth liquid culture medium supplemented with polyoxyethylenated (20 EO) sorbitan monopalmitate (Tween 40 from Croda) and Phytagel© BioReagent were used (i.e. a mixture of 5 g of Phytagel+0.6 g of Tween 40+60 g of Sabouraud broth).
A 96-well microplate at an incubation temperature of 32.5° C. is used.
The incubation time of the microplate is: • from 24 to 30 h under aerobic conditions for microbial Aspergillus niger ATCC 6275; • from 18 to 24 h under aerobic conditions for Candida albicans ATCC 10231, Pseudomonas aeruginosa ATCC 9027 and Staphylococcus aureus ATCC 6538; Tests
A 10% (weight/volume) stock solution was prepared by mixing 1 g of compound in 9 ml of aqueous 1%0 agar solution. Successive dilutions were made with the 1%0 agar solution.
50 μl of each of the daughter solutions obtained containing compound A or B are added to the microplate wells. 100 μl of Sabouraud liquid nutrient broth inoculated at double concentration with the Aspergillus niger strain and 50 μl of aqueous 1%0 agar solution are also added thereto.
50 μl of each of the daughter solutions obtained containing compound A and 50 μl of each of the daughter solutions obtained containing compound B are added to the microplate wells. 100 μl of Sabouraud liquid nutrient broth inoculated at double concentration with the strain Aspergillus niger are also added thereto.
A positive microbial growth control was also prepared. The positive microbial growth control corresponds to the mixture of 100 μl of aqueous 1%0 agar solution with 100 μl of Sabouraud liquid nutrient broth inoculated at double concentration with the strain Aspergillus niger in the absence of compounds A and B.
An absorbance control was performed in parallel on compounds A and B alone. This control corresponds to 100 μl of double concentration sterile Sabouraud liquid nutrient broth+100 μl of double concentration compound A or B.
In the three cases (absorbance control, growth control and test), the final volume present in each of the microplate wells is 200 μl.
In the two cases (test and control), the inoculum represents the concentration of the Aspergillus niger strain present in the final volume of the wells (200 μl) and is between 2 and 6×10^5 cfu/ml of Aspergillus niger.

The structures appear in SMILES notation.

Turning to `CC(=O)c1ccc(O)cc1` [B, 4-hydroxyacetophenone], the microbial growth percentage came to 86% (0.0625 weight % B), 72% (0.125 weight % B), 79% (0.25 weight % B) and 6% (0.5 weight % B). Also, the “% MIC of B alone” value (first concentration giving growth <= 25%) came out at 0.5%.
